Laboratory results from patent US6001867A, “1-aryl-dibenzothiophenes” (American Home Products Corporation, priority 1999, dated 1999).

Experiments:
[1] = test system: rat hepatic microsomal PTPases; settings: test compound 50 μM; rat hepatic microsomal fraction; substrate 50 uM, 37 deg.C
[2] = biological target: T1, Human recombinant PTP1B (hPTP1B) (Homo sapiens, UniProt P18031)
T1 sequence (P18031 1-435): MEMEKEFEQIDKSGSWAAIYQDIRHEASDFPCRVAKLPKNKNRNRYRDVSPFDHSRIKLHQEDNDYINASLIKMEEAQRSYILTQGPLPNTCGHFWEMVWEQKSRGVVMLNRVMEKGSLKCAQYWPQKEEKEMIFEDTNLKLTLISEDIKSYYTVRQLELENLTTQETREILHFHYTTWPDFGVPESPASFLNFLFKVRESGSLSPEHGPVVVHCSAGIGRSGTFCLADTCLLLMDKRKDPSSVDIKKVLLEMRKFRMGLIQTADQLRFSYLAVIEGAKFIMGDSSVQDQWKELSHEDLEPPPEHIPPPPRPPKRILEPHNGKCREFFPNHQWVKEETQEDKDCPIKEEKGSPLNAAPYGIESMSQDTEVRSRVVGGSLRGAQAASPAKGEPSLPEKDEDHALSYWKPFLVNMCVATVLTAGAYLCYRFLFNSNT

[3] = literature study; cited from earlier work

SMILES	% Change from Control (PTPase activity) [1]	IC50 [2]	carcinogenicity [3]
Oc1ccc(-c2cccc3sc4ccccc4c23)cc1 [Example 3, 4-(Dibenzothiophen-1-yl)-phenol]	-51.63%		
Oc1ccc(-c2c(Br)ccc3sc4ccccc4c23)cc1 [Example 6, 4-(2-Bromo-dibenzothiophen-1-yl)-phenol]	-31.13%		
Oc1c(Br)cc(-c2cccc3sc4ccccc4c23)cc1Br [Example 7, 2,6-Dibromo-4-(dibenzothiophen-1-yl)-phenol]	-18.53%	1.89 µM	
COC(=O)COc1ccc(-c2c(Br)ccc3sc4ccccc4c23)cc1 [Example 10, [4-(2-Bromo-dibenzothiophen-1-yl)-phenoxy]-acetic Acid Methyl Ester]	-21.11%		
CN(C)c1ccc(-c2cccc3sc4ccccc4c23)cc1 [compound A (R=NMe2, R'=H)]			inactive

Further lines, with some results ahead:

% Change from Control (PTPase activity) [1]	IC50 [2]	SMILES	carcinogenicity [3]
-19.49%		O=C(O)COc1ccc(-c2cccc3sc4ccccc4c23)cc1 [Example 12, [4-(Dibenzothiophen-1-yl)-phenoxy]-acetic Acid]	
-42.62%		O=C(O)COc1ccc(-c2c(Br)ccc3sc4ccccc4c23)cc1 [Example 13, [4-(2-Bromo-dibenzothiophen-1-yl)-phenoxy]-acetic Acid]	
-74.88%		O=C(O)COc1c(Br)cc(-c2cccc3sc4ccccc4c23)cc1Br [Example 14, [2,6-Dibromo-4-(dibenzothiophen-1-yl)-phenoxy]-acetic acid]	
-81.43%	1.33 µM	O=C(O)[C@@H](Cc1ccccc1)Oc1c(Br)cc(-c2cccc3sc4ccccc4c23)cc1Br [Example 19, (R)-2-[2,6-Dibromo-4-(dibenzothiophen-1-yl)-phenoxy]-3-phenyl-propionic acid]	
-75.69%	0.604 µM	O=C(O)[C@@H](Cc1ccccc1)Oc1c(Br)cc(-c2c(Br)ccc3sc4ccccc4c23)cc1Br [Example 20]	
-87.44%	1.39 µM	O=C(O)[C@@H](CCN1C(=O)c2ccccc2C1=O)Oc1c(Br)cc(-c2c(Br)ccc3sc4ccccc4c23)cc1Br [Example 21, (R)-2-[2,6-Dibromo-4-(2-bromo-dibenzothiophen-1-yl)-phenoxy]-4-(1,3-dioxo-1,3-dihydro-isoindol-2-yl)-butyric acid]	
